The source of these data is patent publication US20140171431A1, “AZOLE HETEROCYCLIC COMPOUND, PREPARATION METHOD, PHARMACEUTICAL COMPOSITION AND USE” (priority 2011, published 2014).

Read-outs that look alike come from different tables or passages of the source. Where only a bound is given, the exact number is not on record here.

One assay addresses T1, Lp-PLA2 in rabbit serum (Oryctolagus cuniculus, UniProt G1SE06).
T1 construct: from tissue; host or cells: rabbit serum
T1 sequence (G1SE06 22-423): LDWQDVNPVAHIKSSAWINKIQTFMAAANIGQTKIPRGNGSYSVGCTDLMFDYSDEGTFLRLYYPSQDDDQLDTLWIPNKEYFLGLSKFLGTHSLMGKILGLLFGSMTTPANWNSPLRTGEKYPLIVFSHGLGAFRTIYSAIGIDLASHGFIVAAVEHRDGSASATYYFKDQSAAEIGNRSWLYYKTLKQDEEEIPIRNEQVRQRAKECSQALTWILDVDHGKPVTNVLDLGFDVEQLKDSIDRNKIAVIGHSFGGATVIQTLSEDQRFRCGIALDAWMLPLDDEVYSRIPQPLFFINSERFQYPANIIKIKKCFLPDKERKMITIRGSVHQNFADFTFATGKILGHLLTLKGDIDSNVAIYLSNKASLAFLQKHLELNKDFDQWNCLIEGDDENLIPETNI
Put plainly: In vitro inhibitory activity towards the enzyme Lp-PLA2 in rabbit serum, [3H]PAF substrate. To be noted: 100 nM. The assay is classed as biochemical.

For a further assay, the target named is T2, Lp-PLA2 in human serum (Homo sapiens, UniProt Q13093).
T2 construct: from tissue
T2 sequence (Q13093 22-441): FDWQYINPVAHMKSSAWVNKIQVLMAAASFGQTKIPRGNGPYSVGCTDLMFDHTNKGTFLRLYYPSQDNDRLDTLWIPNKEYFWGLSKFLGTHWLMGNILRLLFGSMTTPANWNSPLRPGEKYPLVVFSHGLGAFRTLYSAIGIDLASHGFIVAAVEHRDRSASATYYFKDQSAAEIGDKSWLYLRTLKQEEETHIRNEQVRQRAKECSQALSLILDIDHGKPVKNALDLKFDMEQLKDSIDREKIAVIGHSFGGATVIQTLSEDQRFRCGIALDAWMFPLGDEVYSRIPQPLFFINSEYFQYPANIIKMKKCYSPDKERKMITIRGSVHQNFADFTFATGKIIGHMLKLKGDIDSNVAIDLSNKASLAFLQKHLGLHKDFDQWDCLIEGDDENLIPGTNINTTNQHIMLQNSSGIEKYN
Kind of assay: In vitro inhibitory activity towards the enzyme Lp-PLA2 in human serum, [3H]PAF substrate. The assay is classed as biochemical. Conditions: for inhibition at 0.01 µM: 10 nM; for inhibition at 0.1 µM: 100 nM. In a few lines: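 Human plasma was preincubated with compound 10 min at 37 °C in 50 mM HEPES, 150 mM NaCl, pH 7.4. Reaction started with 20 nM [3H]PAF, run 10 min at 37 °C, then extracted with CHCl3/MeOH (2:1); radioactivity of the supernatant was counted.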

Setting [1] is: rabbit serum, read-out: inhibition, %.
[2] abbreviates: human serum, read-out: inhibition, %.

For `COC(=O)C(C)(C)N1CCN(Cc2nnc(Cn3c(SCc4ccc(F)cc4)nc(=O)c4c3CCC4)n2Cc2ccc(-c3ccc(C(F)(F)F)cc3)cc2)CC1` [Example 88, methyl-2-(4-((5-((2-(4-fluorobenzylthio)-4-oxo-4,5,6,7-tetrahydro-1H-cyclopenta[d]pyrimidin-1-yl)methyl)-4-((4′-(trifluoromethyl)biphenyl-4-yl)methyl)-4H-1,2,4-triazol-3-yl)methyl)piperazin-1-yl)-2-methylpropanoate], the inhibition at 0.1 µM at Lp-PLA2 in rabbit serum (setting [1]) is 67%; against Lp-PLA2 in human serum (human serum), 91%. In addition, the inhibition at 0.01 µM at Lp-PLA2 in human serum (setting [2]) worked out at 59%.

`CN(Cc1nnc(Cn2c(SCc3ccc(F)cc3)nc(=O)c3c2CCC3)n1Cc1ccc(-c2ccc(C(F)(F)F)cc2)cc1)C1CC1` [Example 101, 1-((5-((cyclopropyl(methyl)amino)methyl)-4-((4′-(trifluoromethyl)biphenyl-4-yl)methyl)-4H-1,2,4-triazol-3-yl)methyl)-2-(4-fluorobenzylthio)-6,7-dihydro-1H-cyclopenta[d]pyrimidin-4(5H)-one]: the inhibition at 0.1 µM was 86% on Lp-PLA2 in rabbit serum (setting [1]) and 96% against Lp-PLA2 in human serum (human serum). The inhibition at 0.01 µM on Lp-PLA2 in human serum (setting [2]) worked out at 77%.

For `O=C1NCCN1CCNCc1nnc(Cn2c(SCc3ccc(F)cc3)nc(=O)c3c2CCC3)n1Cc1ccc(-c2ccc(C(F)(F)F)cc2)cc1` [Example 102, 2-(4-fluorobenzylthio)-1-((5-((2-(2-oxoimidazolidin-1-yl)ethylamino)methyl)-4-((4′-(trifluoromethyl)biphenyl-4-yl)methyl)-4H-1,2,4-triazol-3-yl)methyl)-6,7-dihydro-1H-cyclopenta[d]pyrimidin-4(5H)-one], on Lp-PLA2 in rabbit serum (setting [1]), the inhibition at 0.1 µM turned out to be 97%. Also, on Lp-PLA2 in human serum (setting [2]), the inhibition at 0.01 µM turned out to be 77%.

Regarding `CN(C)C1CCN(Cc2nnc(Cn3c(SCc4ccc(F)cc4)nc(=O)c4c3CCC4)n2Cc2ccc(-c3ccc(C(F)(F)F)cc3)cc2)CC1` [Example 103, 1-((5-((4-(dimethylamino)piperidin-1-yl)methyl)-4-((4′-(trifluoromethyl)biphenyl-4-yl)methyl)-4H-1,2,4-triazol-3-yl)methyl)-2-(4-fluorobenzylthio)-6,7-dihydro-1-cyclopenta[d]pyrimidin-4(5H)-one], the inhibition at 0.1 µM turned out to be 82% on Lp-PLA2 in rabbit serum (setting [1]) and 98% at Lp-PLA2 in human serum (human serum). Further, at Lp-PLA2 in human serum (setting [2]), the inhibition at 0.01 µM amounted to 71%.

For `O=c1nc(SCc2ccc(F)cc2)n(Cc2nnc(CN3CCC(F)(F)C3)n2Cc2ccc(-c3ccc(C(F)(F)F)cc3)cc2)c2c1CCC2` [Example 104, 1-((5-((3,3-difluoropyrrolidin-1-yl)methyl)-4-((4′-(trifluoromethyl)biphenyl-4-yl)methyl)-4H-1,2,4-triazol-3-yl)methyl)-2-(4-fluorobenzylthio)-6,7-dihydro-1H-cyclopenta[d]pyrimidin-4(5H)-one], the inhibition at 0.1 µM at Lp-PLA2 in rabbit serum (setting [1]) is 67%; at Lp-PLA2 in human serum (human serum) it was 86%. The inhibition at 0.01 µM on Lp-PLA2 in human serum (setting [2]) turned out to be 53%.

With `CN(C)CCNCc1nnc(Cn2c(SCc3ccc(F)cc3)nc(=O)c3c2CCC3)n1Cc1ccc(-c2ccc(C(F)(F)F)cc2)cc1` [Example 105, 1-((5-((2-(dimethylamino)ethylamino)methyl)-4-((4′-(trifluoromethyl)biphenyl-4-yl)methyl)-4H-1,2,4-triazol-3-yl)methyl)-2-(4-fluorobenzylthio)-6,7-dihydro-1H-cyclopenta[d]pyrimidin-4(5H)-one], the inhibition at 0.1 µM at Lp-PLA2 in rabbit serum (setting [1]) stood at 98%. Further, the inhibition at 0.01 µM at Lp-PLA2 in human serum (setting [2]) amounted to 72%.

In the case of `CCN1CCC[C@H]1CNCc1nnc(Cn2c(SCc3ccc(F)cc3)nc(=O)c3c2CCC3)n1Cc1ccc(-c2ccc(C(F)(F)F)cc2)cc1` [Example 106, (S)-1-((5-(((1-ethylpyrrolidin-2-yl)methylamino)methyl)-4-((4′-(trifluoromethyl)biphenyl-4-yl)methyl)-4H-1,2,4-triazol-3-yl)methyl)-2-(4-fluorobenzylthio)-6,7-dihydro-1H-cyclopenta[d]pyrimidin-4(5H)-one], the inhibition at 0.1 µM is 96% on Lp-PLA2 in rabbit serum (setting [1]) and greater than 90% at Lp-PLA2 in rabbit serum (read-out: inhibitory rate towards the rabbit serum derived Lp-PLA2 enzyme). For the same compound, the inhibition at 0.01 µM is 80% on Lp-PLA2 in human serum (setting [2]) and greater than 80% at Lp-PLA2 in human serum (read-out: inhibitory rate towards the human serum derived Lp-PLA2 enzyme).

Turning to `CN1CCN(Cc2nnc(Cn3c(SCc4ccc(F)cc4)nc(=O)c4c3CCC4)n2Cc2ccc(-c3ccc(C(F)(F)F)cc3)cc2)CC1` [Example 107, 2-(4-fluorobenzylthio)-1-((5-((4-methylpiperazin-1-yl)methyl)-4-((4′-(trifluoromethyl)biphenyl-4-yl)methyl)-4H-1,2,4-triazol-3-yl)methyl)-6,7-dihydro-1H-cyclopenta[d]pyrimidin-4(5H)-one], the inhibition at 0.1 µM came to 68% at Lp-PLA2 in rabbit serum (setting [1]) and 91% against Lp-PLA2 in human serum (human serum). For the same compound, the inhibition at 0.01 µM on Lp-PLA2 in human serum (setting [2]) is 70%.

For the compound `CC(=O)NCc1nnc(Cn2c(SCc3ccc(F)cc3)nc(=O)c3c2CCC3)n1Cc1ccc(-c2ccc(C(F)(F)F)cc2)cc1` [Example 110, N-((5-((2-(4-fluorobenzylthio)-4-oxo-4,5,6,7-tetrahydro-1H-cyclopenta[d]pyrimidin-1-yl)methyl)-4-((4′-(trifluoromethyl)biphenyl-4-yl)methyl)-4H-1,2,4-triazol-3-yl)methyl)acetamide], the figures for the inhibition at 0.1 µM at Lp-PLA2 in rabbit serum (setting [1]) and against Lp-PLA2 in human serum (human serum) were 67% and 83%, respectively. For the same compound, at Lp-PLA2 in human serum (setting [2]), the inhibition at 0.01 µM is 67%.

As for `CCS(=O)(=O)NCc1nnc(Cn2c(SCc3ccc(F)cc3)nc(=O)c3c2CCC3)n1Cc1ccc(-c2ccc(C(F)(F)F)cc2)cc1` [Example 111, N-((5-((2-(4-fluorobenzylthio)-4-oxo-4,5,6,7-tetrahydro-1H-cyclopenta[d]pyrimidin-1-yl)methyl)-4-((4′-(trifluoromethyl)biphenyl-4-yl)methyl)-4H-1,2,4-triazol-3-yl)methyl)ethanesulfonamide], the inhibition at 0.1 µM at Lp-PLA2 in rabbit serum (setting [1]) was found to be 75%; on Lp-PLA2 in human serum (human serum), 92%. The inhibition at 0.01 µM at Lp-PLA2 in human serum (setting [2]) is 68%.

Regarding `O=C1NCCN1Cc1nnc(Cn2c(SCc3ccc(F)cc3)nc(=O)c3c2CCC3)n1Cc1ccc(-c2ccc(C(F)(F)F)cc2)cc1` [Example 112, 2-(4-fluorobenzylthio)-1-((5-((2-oxoimidazolidin-1-yl)methyl)-4-((4′-(trifluoromethyl)biphenyl-4-yl)methyl)-4H-1,2,4-triazol-3-yl)methyl)-6,7-dihydro-1H-cyclopenta[d]pyrimidin-4(5H)-one], the inhibition at 0.1 µM at Lp-PLA2 in rabbit serum (setting [1]) is 63%; on Lp-PLA2 in human serum (human serum), 87%. Moreover, at Lp-PLA2 in human serum (setting [2]), the inhibition at 0.01 µM was 56%.

Turning to `CNC(=S)NCc1nnc(Cn2c(SCc3ccc(F)cc3)nc(=O)c3c2CCC3)n1Cc1ccc(-c2ccc(C(F)(F)F)cc2)cc1` [Example 113, 1-((5-((2-(4-fluorobenzylthio)-4-oxo-4,5,6,7-tetrahydro-1H-cyclopenta[d]pyrimidin-1-yl)methyl)-4-((4′-(trifluoromethyl)biphenyl-4-yl)methyl)-4H-1,2,4-triazol-3-yl)methyl)-3-methylthiourea], the inhibition at 0.1 µM on Lp-PLA2 in rabbit serum (setting [1]) was 64%; against Lp-PLA2 in human serum (human serum), 91%. For the same compound, on Lp-PLA2 in human serum (setting [2]), the inhibition at 0.01 µM was 56%.

Consider `O=c1nc(SCc2ccc(F)cc2)n(Cc2nnc(CSCc3ccc(F)cc3)n2Cc2ccc(-c3ccc(C(F)(F)F)cc3)cc2)c2c1CCC2` [Example 115, 2-(4-fluorobenzylthio)-1-((5-((4-fluorobenzylthio)methyl)-4-((4′-(trifluoromethyl)biphenyl-4-yl)methyl)-4H-1,2,4-triazol-3-yl)methyl)-6,7-dihydro-1H-cyclopenta[d]pyrimidin-4(5H)-one], for which the inhibition at 0.1 µM on Lp-PLA2 in rabbit serum (setting [1]) came out at 78%. In addition, the inhibition at 0.01 µM at Lp-PLA2 in human serum (setting [2]) came to 77%.
